In publication PMC5080441, “A direct-sensing galactose chemoreceptor recently evolved in invasive strains of Campylobacter jejuni” (Nature Communications, 2016):

Biological target: Tlp11 (CcrG, Campylobacter ChemoReceptor for Galactose)
Test: SPR (Biacore); STD-NMR
Format: binding, Campylobacter jejuni

Compound: OC[C@H]1OC(O)[C@H](O)[C@@H](O)[C@H]1O (stereo partly shown) [galactose]
- Kd: 17 µM
